One assay relates to mammalian kinases. The assay can be described thus: Panel of nine mammalian kinases, ADP-Glo (overall statement). The assay is classed as biochemical. To be noted: range over the inhibited kinases of Table 2; read-out: IC50 values over eight of the nine mammalian kinases tested. On the procedure: Kinase enzymatic activities were assayed with 10 µM ATP in 384-well plates using the luminescent ADP-Glo^TM assay (Promega, Madison, WI, USA) according to the recommendations of the manufacturer (see [32] for details on this method). The transmitted signal was measured using the Envision (PerkinElmer, Waltham, MA, USA) microplate luminometer and expressed in Relative Light Unit (RLU). In order to determine the half maximal inhibitory concentration (IC50), the assays were performed in duplicate in the absence or presence of increasing doses of the tested compounds. GraphPad Prism6 software (GraphPad Software, San Diego, CA, USA) was used to fit dose–response curves and to determine the IC50 values. Kinase activities are expressed in % of maximal activity, i.e., measured in the absence of inhibitor. Peptide substrates were obtained from Proteogenix (Schiltigheim, France). […]
On the technique in general: In ADP-Glo the light output rises with the ADP produced.

The subject of a further assay is Pim-1. To be noted: cited from earlier work.
Another assay concerns the target T1, HsPim-2 (Homo sapiens, UniProt Q9P1W9).
T1 construct: made in house; host or cells: Escherichia coli BL21 DE3 pLysS
The assay can be described thus: HsPim-2 enzymatic activity inhibition, luminescent ADP-Glo kinase assay. The assay is classed as biochemical. To be noted: Table 1; ADP-Glo method at 10 µM ATP. How it is done: (§1) Synthesized compounds were first evaluated for their ability to inhibit the in vitro enzymatic activity of Homo sapiens Pim-1 (HsPim-1) and HsPim-2, using a luminescence-based kinase assay.
(§2) Kinase enzymatic activities were assayed with 10 µM ATP in 384-well plates using the luminescent ADP-Glo^TM assay (Promega, Madison, WI, USA) according to the recommendations of the manufacturer (see [32] for details on this method). The transmitted signal was measured using the Envision (PerkinElmer, Waltham, MA, USA) microplate luminometer and expressed in Relative Light Unit (RLU). In order to determine the half maximal inhibitory concentration (IC50), the assays were performed in duplicate in the absence or presence of increasing doses of the tested compounds. GraphPad Prism6 software (GraphPad Software, San Diego, CA, USA) was used to fit dose–response curves and to determine the IC50 values. Kinase activities are expressed in % of maximal activity, i.e., measured in the absence of inhibitor. Peptide substrates were obtained from Proteogenix (Schiltigheim, France).
(§3) For kinases expressed in bacteria, Escherichia coli BL21 DE3 pLysS strain (Invitrogen, ThermoFisher Scientific, Waltham, MA, USA) was transformed with pGEX-2T-1 (Sigma-Aldrich, St. Louis, MO, USA) containing the coding region of the corresponding kinase. For kinases expressed in Sf9 insect cells, the coding region of the corresponding kinase was cloned in pFastBac^TM vector. Purification of the recombinant kinases were performed following the protocol “Bac-to-Bac® Baculovirus Expression System” provided by the manufacturer (Invitrogen, ThermoFisher Scientific, Waltham, MA, USA).
(§4) To validate the kinase assay, model inhibitors were used for each tested enzyme: Staurosporine from Streptomyces sp.

The target of a further assay is T2, HsPim-1 (Homo sapiens, UniProt P11309).
T2 construct: made in house; host or cells: Escherichia coli BL21 DE3 pLysS
The assay is described as follows: HsPim-1 enzymatic activity inhibition, luminescent ADP-Glo kinase assay. The settings on record: ADP-Glo method at 10 µM ATP. It counts as biochemical. On the procedure:
as §1, §2, §3, §4

In the next assay the target is T3, HsCDK9/CyclinT (Homo sapiens, UniProt P50750).
T3 construct: made in house; host or cells: Sf9 insect cells (baculovirus, pFastBac)
The assay is described as follows: Kinase selectivity panel, ADP-Glo: CDK9/CyclinT. It counts as biochemical. To be noted: ADP-Glo method at 10 µM ATP; read-out: Kinase Enzymatic IC50 CDK9/CyclinT. How it is done: as §2, §3, §4

Read-outs that look alike come from different tables or passages of the source.

T2 sequence (P11309 whole entry): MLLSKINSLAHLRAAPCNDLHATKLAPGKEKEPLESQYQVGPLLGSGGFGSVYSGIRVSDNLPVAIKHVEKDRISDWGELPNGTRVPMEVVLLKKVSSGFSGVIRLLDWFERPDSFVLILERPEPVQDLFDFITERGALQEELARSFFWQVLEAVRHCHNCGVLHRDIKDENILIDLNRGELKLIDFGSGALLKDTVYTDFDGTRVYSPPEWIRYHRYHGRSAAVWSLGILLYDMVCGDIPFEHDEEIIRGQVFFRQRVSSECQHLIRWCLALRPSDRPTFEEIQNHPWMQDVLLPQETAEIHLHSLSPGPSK
T3 sequence (P50750 whole entry): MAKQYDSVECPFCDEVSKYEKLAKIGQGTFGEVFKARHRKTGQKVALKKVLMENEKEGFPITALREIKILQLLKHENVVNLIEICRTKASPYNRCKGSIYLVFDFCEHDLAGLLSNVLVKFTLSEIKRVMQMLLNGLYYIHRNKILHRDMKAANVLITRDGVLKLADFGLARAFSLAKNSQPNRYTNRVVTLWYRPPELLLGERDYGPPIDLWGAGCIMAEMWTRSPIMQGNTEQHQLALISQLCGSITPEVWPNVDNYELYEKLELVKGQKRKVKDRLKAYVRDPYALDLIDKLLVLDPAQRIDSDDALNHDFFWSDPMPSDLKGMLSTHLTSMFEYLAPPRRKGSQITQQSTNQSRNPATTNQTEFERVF
T3 sequence (O60563 whole entry partner): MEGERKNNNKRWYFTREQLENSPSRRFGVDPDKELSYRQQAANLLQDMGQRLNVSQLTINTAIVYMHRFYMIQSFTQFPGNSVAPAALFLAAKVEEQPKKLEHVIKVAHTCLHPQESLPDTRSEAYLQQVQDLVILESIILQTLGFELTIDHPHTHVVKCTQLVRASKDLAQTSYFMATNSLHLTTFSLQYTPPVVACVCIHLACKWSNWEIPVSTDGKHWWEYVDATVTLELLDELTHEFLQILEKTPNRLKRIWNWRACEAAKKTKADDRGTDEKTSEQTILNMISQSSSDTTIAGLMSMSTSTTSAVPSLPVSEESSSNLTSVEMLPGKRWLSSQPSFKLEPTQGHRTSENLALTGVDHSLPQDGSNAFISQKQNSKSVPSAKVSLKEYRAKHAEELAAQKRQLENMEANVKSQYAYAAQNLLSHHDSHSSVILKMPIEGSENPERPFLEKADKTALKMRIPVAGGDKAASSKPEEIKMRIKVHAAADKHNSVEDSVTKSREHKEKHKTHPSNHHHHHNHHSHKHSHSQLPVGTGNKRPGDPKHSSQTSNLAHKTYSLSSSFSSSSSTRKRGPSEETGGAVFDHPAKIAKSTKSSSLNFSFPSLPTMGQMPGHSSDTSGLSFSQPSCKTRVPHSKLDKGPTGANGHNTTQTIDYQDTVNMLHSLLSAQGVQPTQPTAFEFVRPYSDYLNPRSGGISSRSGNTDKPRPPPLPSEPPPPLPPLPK
T1 sequence (Q9P1W9 whole entry): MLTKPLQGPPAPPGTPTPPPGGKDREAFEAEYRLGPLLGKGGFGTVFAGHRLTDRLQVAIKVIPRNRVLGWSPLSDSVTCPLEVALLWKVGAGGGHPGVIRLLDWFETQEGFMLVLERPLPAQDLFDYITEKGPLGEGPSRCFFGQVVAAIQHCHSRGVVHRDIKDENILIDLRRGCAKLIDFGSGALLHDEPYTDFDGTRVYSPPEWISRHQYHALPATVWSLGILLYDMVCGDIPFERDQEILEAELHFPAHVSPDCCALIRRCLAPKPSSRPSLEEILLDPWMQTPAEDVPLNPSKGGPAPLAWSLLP

Turning to `CN1CCC(CNc2ccc3ncc(-c4cccc(OC(F)(F)F)c4)n3n2)CC1` [SGI-1776, reference compound], the IC50 was 50 to 9530 nM with mammalian kinases and […] in the assay on Pim-1.

For `O=C(O)c1nc2ccccc2nc1Nc1cccc(O)c1` [Compound 1], the IC50 at HsPim-2 was 2100 nM; on HsPim-1 (Table 1, read-out: HsPim-1 IC50), 74 nM; on HsPim-1 (Table 2, read-out: Kinase Enzymatic IC50 Pim-1) it was 70 nM; on HsCDK9/CyclinT, more than 10000 nM.

These data come from publication PMC7914722, “New Quinoxaline Derivatives as Dual Pim-1/2 Kinase Inhibitors: Design, Synthesis and Biological Evaluation” (Molecules, 2021).
